Among the data in ChEMBL document CHEMBL1145498, “A systematic interaction map of validated kinase inhibitors with Ser/Thr kinases” (Proc Natl Acad Sci U S A, 2007) are ΔTm values, retold here.

The target of assay [1] is T1, Mitogen-activated protein kinase kinase kinase 5 (Homo sapiens) (UniProt Q99683).
T1 sequence (whole entry): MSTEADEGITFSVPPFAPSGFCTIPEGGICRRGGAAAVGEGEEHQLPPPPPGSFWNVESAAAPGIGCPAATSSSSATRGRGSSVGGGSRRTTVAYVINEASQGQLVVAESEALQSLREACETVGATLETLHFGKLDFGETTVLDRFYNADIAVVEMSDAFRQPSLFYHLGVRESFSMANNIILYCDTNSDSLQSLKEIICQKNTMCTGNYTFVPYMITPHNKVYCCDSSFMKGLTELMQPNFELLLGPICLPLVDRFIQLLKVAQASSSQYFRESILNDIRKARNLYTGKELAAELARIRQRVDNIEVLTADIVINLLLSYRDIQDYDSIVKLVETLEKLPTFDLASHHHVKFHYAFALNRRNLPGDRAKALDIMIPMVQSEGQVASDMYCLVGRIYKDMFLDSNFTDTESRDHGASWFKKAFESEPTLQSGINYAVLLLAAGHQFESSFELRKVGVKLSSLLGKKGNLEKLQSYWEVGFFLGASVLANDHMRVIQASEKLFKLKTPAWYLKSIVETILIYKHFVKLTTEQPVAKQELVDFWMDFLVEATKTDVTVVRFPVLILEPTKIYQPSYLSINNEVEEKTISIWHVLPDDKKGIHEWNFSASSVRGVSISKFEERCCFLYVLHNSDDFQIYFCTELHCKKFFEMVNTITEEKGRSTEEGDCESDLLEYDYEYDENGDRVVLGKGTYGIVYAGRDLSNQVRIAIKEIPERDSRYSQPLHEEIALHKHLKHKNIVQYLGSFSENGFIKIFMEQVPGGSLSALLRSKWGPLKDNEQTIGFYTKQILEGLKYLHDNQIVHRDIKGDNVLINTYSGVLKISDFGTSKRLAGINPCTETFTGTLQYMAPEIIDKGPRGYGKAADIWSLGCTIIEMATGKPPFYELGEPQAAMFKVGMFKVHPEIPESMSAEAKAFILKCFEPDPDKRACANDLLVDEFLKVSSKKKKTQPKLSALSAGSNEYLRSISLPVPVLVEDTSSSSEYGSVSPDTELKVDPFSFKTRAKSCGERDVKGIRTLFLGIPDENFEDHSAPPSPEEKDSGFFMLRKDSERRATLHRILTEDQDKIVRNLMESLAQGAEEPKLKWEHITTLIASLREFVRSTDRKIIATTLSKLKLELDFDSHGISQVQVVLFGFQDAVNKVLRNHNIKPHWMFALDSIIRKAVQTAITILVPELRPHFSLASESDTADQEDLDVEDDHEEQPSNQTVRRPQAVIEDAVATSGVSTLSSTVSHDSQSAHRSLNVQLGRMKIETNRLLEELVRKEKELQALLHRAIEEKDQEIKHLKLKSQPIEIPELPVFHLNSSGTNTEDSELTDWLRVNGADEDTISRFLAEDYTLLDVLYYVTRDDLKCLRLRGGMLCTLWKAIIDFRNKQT

For assay [2], the target named is Cyclin-dependent kinase 6 (Homo sapiens) (UniProt Q00534).
Assay [3] addresses Serine/threonine-protein kinase Chk2 (Homo sapiens, UniProt O96017).
For assay [4], the target named is Serine/threonine-protein kinase 26 (Homo sapiens) (UniProt Q9P289).
The target in assay [5] is Calcium/calmodulin-dependent protein kinase type II subunit beta (Homo sapiens) (UniProt Q13554).
Assay [6] deals with Glycogen synthase kinase-3 beta (Homo sapiens, UniProt P49841).
The target in assay [7] is Serine/threonine-protein kinase 16 (Homo sapiens) (UniProt O75716).
In assay [8] the target is TRAF2 and NCK-interacting protein kinase (Homo sapiens) (UniProt Q9UKE5).
The target of assay [9] is T2, Serine/threonine-protein kinase 17A (Homo sapiens) (UniProt Q9UEE5).
T2 sequence (whole entry): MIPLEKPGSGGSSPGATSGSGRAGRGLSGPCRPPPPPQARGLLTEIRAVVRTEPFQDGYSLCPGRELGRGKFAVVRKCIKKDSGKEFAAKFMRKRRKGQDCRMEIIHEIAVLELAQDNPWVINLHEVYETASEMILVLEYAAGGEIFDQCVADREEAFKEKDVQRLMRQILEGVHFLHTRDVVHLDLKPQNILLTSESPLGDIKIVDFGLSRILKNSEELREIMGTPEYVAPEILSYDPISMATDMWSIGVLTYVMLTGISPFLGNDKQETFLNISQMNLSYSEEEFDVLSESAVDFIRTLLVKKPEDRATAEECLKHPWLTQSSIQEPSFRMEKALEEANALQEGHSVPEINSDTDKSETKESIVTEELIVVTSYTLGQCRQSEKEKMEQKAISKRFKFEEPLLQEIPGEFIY

The target in assay [10] is Serine/threonine-protein kinase 26 (Homo sapiens) (UniProt Q9P289). This is another data set of the same source.
In assay [11] the target is Serine/threonine-protein kinase 10 (Homo sapiens) (UniProt O94804).
Assay [12] deals with Tyrosine-protein kinase JAK1 (Homo sapiens) (UniProt P23458).
Assay [13] addresses Serine/threonine-protein kinase PAK 5 (Homo sapiens) (UniProt Q9P286).
The target of assay [14] is Mitogen-activated protein kinase 3 (Homo sapiens, UniProt P27361).
The target of assay [15] is Calcium/calmodulin-dependent protein kinase type II subunit alpha (Homo sapiens) (UniProt Q9UQM7).
For assay [16], the target named is Serine/threonine-protein kinase Nek6 (Homo sapiens) (UniProt Q9HC98).
Assay [17] addresses Calcium/calmodulin-dependent protein kinase type II subunit delta (Homo sapiens) (UniProt Q13557).
Assay [18] concerns the target Calcium/calmodulin-dependent protein kinase type 1G (Homo sapiens) (UniProt Q96NX5).
The target in assay [19] is Serine/threonine-protein kinase VRK2 (Homo sapiens) (UniProt Q86Y07).
Assay [20] addresses Serine/threonine-protein kinase PLK1 (Homo sapiens) (UniProt P53350).
Assay [21] deals with Serine/threonine-protein kinase pim-2 (Homo sapiens, UniProt Q9P1W9).
Chain of Serine/threonine-protein kinase pim-2 (Q9P1W9 whole entry, looked up): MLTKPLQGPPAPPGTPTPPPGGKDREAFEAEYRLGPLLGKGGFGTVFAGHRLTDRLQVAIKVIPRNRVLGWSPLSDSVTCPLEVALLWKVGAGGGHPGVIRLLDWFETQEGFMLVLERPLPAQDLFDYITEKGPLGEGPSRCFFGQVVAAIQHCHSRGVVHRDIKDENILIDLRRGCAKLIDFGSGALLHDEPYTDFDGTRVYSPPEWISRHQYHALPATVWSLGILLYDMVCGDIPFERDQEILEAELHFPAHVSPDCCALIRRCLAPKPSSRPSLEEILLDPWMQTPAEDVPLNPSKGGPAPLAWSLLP

Chain of Serine/threonine-protein kinase 10 (Homo sapiens) (O94804 whole entry, looked up): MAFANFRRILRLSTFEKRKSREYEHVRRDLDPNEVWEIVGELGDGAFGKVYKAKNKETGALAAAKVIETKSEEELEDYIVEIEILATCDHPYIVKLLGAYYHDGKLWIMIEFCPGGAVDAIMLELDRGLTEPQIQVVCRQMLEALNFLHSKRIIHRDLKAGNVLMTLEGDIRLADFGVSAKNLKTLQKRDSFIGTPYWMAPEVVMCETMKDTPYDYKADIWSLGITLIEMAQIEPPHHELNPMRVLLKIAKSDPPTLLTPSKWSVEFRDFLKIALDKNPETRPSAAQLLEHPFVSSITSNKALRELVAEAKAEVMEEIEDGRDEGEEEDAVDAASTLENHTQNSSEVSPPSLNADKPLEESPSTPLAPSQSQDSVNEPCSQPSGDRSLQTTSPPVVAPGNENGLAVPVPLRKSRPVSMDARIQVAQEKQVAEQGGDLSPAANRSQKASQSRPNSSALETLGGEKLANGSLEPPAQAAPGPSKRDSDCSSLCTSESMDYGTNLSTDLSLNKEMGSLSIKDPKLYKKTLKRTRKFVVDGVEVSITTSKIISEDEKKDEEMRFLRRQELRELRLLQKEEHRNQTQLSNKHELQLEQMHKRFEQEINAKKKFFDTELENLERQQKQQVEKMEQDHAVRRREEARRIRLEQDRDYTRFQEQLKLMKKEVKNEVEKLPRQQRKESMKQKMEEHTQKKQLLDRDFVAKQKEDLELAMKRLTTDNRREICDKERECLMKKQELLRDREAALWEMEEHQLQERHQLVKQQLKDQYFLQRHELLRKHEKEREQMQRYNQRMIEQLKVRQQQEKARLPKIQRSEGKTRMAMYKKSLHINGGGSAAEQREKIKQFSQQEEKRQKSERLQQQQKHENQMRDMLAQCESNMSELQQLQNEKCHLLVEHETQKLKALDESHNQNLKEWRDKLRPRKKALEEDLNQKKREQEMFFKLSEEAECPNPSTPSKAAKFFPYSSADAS
Chain of Mitogen-activated protein kinase 3 (P27361 whole entry): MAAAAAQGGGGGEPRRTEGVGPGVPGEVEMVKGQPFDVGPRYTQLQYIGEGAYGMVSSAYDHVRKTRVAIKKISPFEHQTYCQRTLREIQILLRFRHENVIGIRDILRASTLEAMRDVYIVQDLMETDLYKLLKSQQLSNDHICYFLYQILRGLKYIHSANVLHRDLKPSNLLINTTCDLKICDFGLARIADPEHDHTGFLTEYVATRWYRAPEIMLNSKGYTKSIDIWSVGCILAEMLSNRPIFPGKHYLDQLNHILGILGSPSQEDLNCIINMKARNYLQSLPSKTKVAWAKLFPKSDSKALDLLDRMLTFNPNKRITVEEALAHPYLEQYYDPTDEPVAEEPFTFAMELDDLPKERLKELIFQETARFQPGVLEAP
Chain of Calcium/calmodulin-dependent protein kinase type II subunit delta (Homo sapiens) (Q13557 whole entry): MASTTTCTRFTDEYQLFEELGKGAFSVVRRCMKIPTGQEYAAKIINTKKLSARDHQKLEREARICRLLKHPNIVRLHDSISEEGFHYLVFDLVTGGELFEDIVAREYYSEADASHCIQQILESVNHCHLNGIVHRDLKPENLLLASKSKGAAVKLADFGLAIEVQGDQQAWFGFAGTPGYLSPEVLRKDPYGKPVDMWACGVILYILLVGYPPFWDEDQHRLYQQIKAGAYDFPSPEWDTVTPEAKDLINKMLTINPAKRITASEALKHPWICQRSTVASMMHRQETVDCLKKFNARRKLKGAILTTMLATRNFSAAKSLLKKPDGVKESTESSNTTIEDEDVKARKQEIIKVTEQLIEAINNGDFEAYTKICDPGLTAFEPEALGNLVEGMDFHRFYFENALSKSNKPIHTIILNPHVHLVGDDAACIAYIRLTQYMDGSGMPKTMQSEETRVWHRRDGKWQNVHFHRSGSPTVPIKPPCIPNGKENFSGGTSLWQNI
Chain of Serine/threonine-protein kinase Nek6 (Homo sapiens) (Q9HC98 whole entry): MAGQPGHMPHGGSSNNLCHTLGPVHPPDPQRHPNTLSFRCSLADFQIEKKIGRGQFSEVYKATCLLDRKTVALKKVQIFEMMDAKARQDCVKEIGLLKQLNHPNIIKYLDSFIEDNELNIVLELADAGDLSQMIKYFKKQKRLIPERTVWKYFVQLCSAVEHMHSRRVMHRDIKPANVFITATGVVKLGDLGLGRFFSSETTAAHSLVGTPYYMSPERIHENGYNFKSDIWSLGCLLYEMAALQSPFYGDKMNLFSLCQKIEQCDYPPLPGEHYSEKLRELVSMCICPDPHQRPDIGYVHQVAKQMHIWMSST
Chain of Serine/threonine-protein kinase 26 (Homo sapiens) (Q9P289 2-416 limits assumed): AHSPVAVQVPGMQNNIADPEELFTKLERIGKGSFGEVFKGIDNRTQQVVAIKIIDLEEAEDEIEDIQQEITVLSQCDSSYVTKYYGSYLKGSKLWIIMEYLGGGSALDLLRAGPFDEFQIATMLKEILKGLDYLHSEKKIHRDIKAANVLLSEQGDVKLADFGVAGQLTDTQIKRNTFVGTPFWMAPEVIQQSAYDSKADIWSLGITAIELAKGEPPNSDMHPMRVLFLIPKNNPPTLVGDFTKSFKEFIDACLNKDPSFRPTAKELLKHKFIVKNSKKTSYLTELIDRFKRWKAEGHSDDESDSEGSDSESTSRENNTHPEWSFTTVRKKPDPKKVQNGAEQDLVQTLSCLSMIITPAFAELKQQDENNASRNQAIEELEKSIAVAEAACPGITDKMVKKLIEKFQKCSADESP
Chain of Serine/threonine-protein kinase PAK 5 (Homo sapiens) (Q9P286 whole entry, looked up): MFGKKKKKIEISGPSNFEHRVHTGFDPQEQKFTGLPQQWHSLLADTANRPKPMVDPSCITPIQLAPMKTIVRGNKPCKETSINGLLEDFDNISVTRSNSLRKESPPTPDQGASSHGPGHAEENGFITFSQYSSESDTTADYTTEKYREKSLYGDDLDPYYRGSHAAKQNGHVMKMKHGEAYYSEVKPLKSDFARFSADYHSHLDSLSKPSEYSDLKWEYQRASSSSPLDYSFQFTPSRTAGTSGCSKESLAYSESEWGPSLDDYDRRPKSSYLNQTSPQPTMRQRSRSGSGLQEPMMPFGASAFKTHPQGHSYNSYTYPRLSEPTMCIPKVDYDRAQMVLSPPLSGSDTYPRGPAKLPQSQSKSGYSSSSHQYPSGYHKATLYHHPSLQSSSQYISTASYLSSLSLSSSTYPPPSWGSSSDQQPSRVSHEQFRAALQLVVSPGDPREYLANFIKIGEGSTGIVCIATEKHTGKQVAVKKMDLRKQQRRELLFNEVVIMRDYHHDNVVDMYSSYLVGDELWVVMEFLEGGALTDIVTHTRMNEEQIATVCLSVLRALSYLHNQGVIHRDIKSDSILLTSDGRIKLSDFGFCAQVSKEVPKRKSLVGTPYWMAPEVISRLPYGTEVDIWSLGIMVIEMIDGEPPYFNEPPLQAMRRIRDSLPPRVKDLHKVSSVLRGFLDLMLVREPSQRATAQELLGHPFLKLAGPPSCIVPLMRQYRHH
Chain of Serine/threonine-protein kinase Chk2 (O96017 whole entry): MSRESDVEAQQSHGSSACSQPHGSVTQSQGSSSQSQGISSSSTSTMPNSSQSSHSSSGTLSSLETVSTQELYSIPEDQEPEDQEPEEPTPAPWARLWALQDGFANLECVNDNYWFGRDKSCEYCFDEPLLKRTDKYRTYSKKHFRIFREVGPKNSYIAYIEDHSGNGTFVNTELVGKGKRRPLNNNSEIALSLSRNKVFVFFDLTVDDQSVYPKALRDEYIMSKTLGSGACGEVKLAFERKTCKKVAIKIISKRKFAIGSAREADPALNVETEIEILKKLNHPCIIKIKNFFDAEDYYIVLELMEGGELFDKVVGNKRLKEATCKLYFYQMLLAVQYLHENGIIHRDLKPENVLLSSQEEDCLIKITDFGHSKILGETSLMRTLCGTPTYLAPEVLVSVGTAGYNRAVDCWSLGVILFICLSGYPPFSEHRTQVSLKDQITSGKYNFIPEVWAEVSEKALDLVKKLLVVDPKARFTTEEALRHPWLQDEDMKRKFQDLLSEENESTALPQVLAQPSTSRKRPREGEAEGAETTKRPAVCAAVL
Chain of Glycogen synthase kinase-3 beta (P49841 whole entry, looked up): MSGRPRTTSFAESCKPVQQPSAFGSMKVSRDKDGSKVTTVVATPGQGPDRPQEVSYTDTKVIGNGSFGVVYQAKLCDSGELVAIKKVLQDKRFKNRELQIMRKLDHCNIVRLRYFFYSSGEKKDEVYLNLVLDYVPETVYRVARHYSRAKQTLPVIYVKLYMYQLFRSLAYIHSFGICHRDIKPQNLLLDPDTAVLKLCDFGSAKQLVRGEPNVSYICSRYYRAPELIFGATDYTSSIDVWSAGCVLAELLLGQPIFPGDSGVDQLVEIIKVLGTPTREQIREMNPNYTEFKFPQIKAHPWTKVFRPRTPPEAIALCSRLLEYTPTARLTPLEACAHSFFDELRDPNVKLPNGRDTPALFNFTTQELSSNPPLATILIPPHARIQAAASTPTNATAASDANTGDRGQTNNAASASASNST
Chain of Cyclin-dependent kinase 6 (Homo sapiens) (Q00534 whole entry): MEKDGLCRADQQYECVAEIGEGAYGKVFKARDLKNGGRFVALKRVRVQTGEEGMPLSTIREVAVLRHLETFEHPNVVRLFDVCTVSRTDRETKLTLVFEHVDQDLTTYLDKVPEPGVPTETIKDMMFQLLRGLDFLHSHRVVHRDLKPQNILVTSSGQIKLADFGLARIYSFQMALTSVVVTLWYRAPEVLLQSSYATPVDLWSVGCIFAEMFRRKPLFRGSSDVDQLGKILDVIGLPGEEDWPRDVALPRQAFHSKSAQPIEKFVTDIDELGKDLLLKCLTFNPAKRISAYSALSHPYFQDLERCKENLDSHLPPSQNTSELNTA

As usually defined, the ΔTm is the shift of the melting midpoint relative to a reference. In the case of `CC(C)(C)c1cc(C=C2C(=O)C=CC2=O)cc(C(C)(C)C)c1O`, the ΔTm is 0.1 °C in [1]; -6.6 °C in assay [2]; 1.8 °C in [3]; 0 °C in [4]; -0.3 °C in [5]; -4 °C in assay [6]. For the same compound, the ΔTm is 0.2 °C in assay [7]; -3.1 °C in assay [8]; -5.3 °C in assay [9]; 0.5 °C in assay [10]; 0.4 °C in assay [11]; -7.9 °C in [12]. Further, the ΔTm in [13] is 0.2 °C; in assay [14], 0.1 °C; in [15], 0.3 °C; in assay [16], 0.2 °C; in [17], 2.1 °C; in assay [18] it was -0.4 °C. The ΔTm in [19] was 0 °C; in assay [20], 1.1 °C; in assay [21] it was -5.7 °C.
`O=C1NC(=O)C(c2c[nH]c3ccccc23)=C1c1c[nH]c2ccccc12`: the ΔTm in assay [1] is 0.2 °C; in assay [2] it was 1.2 °C; in assay [3], 2.6 °C; in assay [4] it was 3.7 °C; in assay [5], 1.2 °C; in assay [6] it was 7.8 °C. Also, the shift in melting temperature (ΔTm) is 3.5 °C in assay [7]; 1.2 °C in assay [8]; 2.9 °C in assay [9]; 0.9 °C in assay [10]; 6.2 °C in assay [11]; -0.5 °C in assay [12]. Also, the ΔTm in [13] was 0.6 °C; in [14], 0.1 °C; in assay [15], 3.3 °C; in assay [16] it was -0.2 °C; in assay [17] it was 1 °C; in assay [18] it was 1 °C. For the same compound, the values for the ΔTm in [19], in assay [20] and in [21] were 1 °C, 0.6 °C and 4 °C, respectively.
On to `NC1=NC(=O)/C(=C2\CCNC(=O)c3[nH]c(Br)cc32)N1` [HYMENIALDISINE], for which the ΔTm came to 10.4 °C in assay [1]; 1.1 °C in assay [2]; 8.2 °C in assay [3]; 1.8 °C in assay [4]; 0.4 °C in assay [5]; 7.4 °C in assay [6]. Besides, the shift in melting temperature (ΔTm) in assay [7] was 1.5 °C; in [8], 4.7 °C; in assay [9], 14.8 °C; in assay [10], 4 °C; in [11], 4.2 °C; in [12], 0.2 °C. Further, the ΔTm in assay [13] was 0.4 °C; in assay [14], 0.9 °C; in assay [15] it was 0.4 °C; in assay [16], 0 °C; in assay [17], 0 °C; in assay [18], -0.2 °C. The figures for the ΔTm in assay [19], in assay [20] and in [21] were 0.8 °C, 5.8 °C and 3.7 °C, respectively.
In the case of `CN(C)c1ccc(CC2C(=O)Nc3ccccc32)cc1` (stereo unspecified), the ΔTm came out at 1.1 °C in [1]; 0.8 °C in [2]; 0.7 °C in assay [3]; 0.3 °C in [4]; 0.4 °C in assay [5]; 1.2 °C in assay [6]. For the same compound, the ΔTm in assay [7] worked out at 1.9 °C; in assay [8], 4.1 °C; in [9], 6.2 °C; in [10], 0.7 °C; in assay [11], 0.9 °C; in [12], 5.5 °C. The ΔTm in [13] is 0.3 °C; in [14], 0.4 °C; in [15], -0.3 °C; in assay [16] it was 0 °C; in assay [17] it was 0.5 °C; in assay [18] it was -0.2 °C. In addition, the figures for the ΔTm in [19], in [20] and in assay [21] were 0.6 °C, -0.2 °C and 0.4 °C, respectively.
Turning to `CN(C)CC1CCn2c(c(C3=C(c4c[nH]c5ccccc45)C(=O)NC3=O)c3ccccc32)C1` (stereo unspecified), the ΔTm stood at 0 °C in assay [1]; 0.8 °C in assay [2]; 0.6 °C in assay [3]; 0.4 °C in assay [4]; 1 °C in [5]; 9.2 °C in [6]. The ΔTm in assay [7] is 1.3 °C; in [8], 0.5 °C; in [9], 5.3 °C; in [10] it was 0 °C; in assay [11], 4.1 °C; in [12], -1.5 °C. Moreover, the ΔTm is 0.6 °C in [13]; -0.2 °C in assay [14]; 1.6 °C in [15]; -0.9 °C in [16]; 0 °C in assay [17]; 0.3 °C in assay [18]. Also, the ΔTm was 0.7 °C in assay [19], -0.2 °C in assay [20] and 1.7 °C in [21].
Regarding `O=Nc1c(-c2c(O)[nH]c3ccccc23)[nH]c2ccccc12`, the ΔTm in assay [1] came to 5.7 °C; in [2], 3.3 °C; in [3] it was 3.1 °C; in assay [4], 2.7 °C; in [5], 1.6 °C; in [6], 11.5 °C. The shift in melting temperature (ΔTm) in [7] turned out to be 5.1 °C; in [8], 5.9 °C; in assay [9], 8.9 °C; in assay [10], 2.5 °C; in assay [11], 4.2 °C; in assay [12] it was 9.4 °C. Also, the ΔTm was determined as 2.6 °C in assay [13]; 0.9 °C in assay [14]; 3.9 °C in [15]; 0.1 °C in [16]; 2.8 °C in assay [17]; 1.1 °C in assay [18]. Besides, the ΔTm in assay [19] turned out to be 3.1 °C; in assay [20], 0.2 °C; in assay [21], 0 °C.
